Results as given in PMC5974420, “Isospecific adenine DNA methyltransferases show distinct preferences towards DNA substrates” (Scientific Reports, 2018).

Experiments:
M.LlaCI = target: T1, M.LlaCI (Lactococcus lactis, UniProt O86267); test: radiometric [3H]methyl transfer to DNA; type: biochemical; conditions: 0.2 µM [methyl-3H]SAM, 0.15 µM ds oligo (AAGCTT site), 10 mM Tris-HCl pH 7.0, 37 °C, 1 h; labelled compound
T1 construct: gene mllaci

M.HindIII = target: T2, M.HindIII (Haemophilus influenzae, UniProt P43871); conditions: 0.2 µM [methyl-3H]SAM, 0.15 µM ds oligo (AAGCTT site), 10 mM Tris-HCl pH 7.0, 37 °C, 1 h; labelled compound
T2 construct: gene hindIIIM
T2 sequence (P43871 whole entry): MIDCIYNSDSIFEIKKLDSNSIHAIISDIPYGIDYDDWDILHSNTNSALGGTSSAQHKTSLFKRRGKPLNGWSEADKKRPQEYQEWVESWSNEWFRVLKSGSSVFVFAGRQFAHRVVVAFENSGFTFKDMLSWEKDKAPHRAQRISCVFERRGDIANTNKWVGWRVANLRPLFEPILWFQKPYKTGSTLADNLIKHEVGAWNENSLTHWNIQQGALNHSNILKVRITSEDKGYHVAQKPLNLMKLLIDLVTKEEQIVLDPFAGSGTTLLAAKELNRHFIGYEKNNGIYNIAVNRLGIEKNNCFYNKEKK

purified protein = substrate: C[S+](CC[C@H](N)C(=O)O)C[C@H]1O[C@@H](n2cnc3c(N)ncnc32)[C@H](O)[C@@H]1O; test: purified protein; conditions: 10 µM unmethylated ds oligo AAGCTT1/AAGCTT2 (AAGCTT site), 10 mM Tris-HCl pH 7.0, 37 °C, 5 min, 135 nM enzyme, labelled compound

T1 sequence (O86267 1-296): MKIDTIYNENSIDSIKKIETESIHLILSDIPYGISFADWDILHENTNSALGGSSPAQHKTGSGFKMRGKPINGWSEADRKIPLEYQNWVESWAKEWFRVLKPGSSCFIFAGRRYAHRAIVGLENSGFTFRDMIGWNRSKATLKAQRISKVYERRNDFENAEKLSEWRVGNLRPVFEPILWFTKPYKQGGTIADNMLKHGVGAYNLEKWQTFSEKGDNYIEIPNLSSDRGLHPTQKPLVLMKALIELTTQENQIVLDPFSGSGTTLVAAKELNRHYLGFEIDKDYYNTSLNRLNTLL

Molecule | radiometric [3H]methyl transfer to DNA (M.LlaCI) | radiometric [3H]methyl transfer to DNA (M.HindIII) | Km (purified protein) [µM]
C[S+](CC[C@H](N)C(=O)O)C[C@H]1O[C@@H](n2cnc3c(N)ncnc32)[C@H](O)[C@@H]1O (stereo partly drawn) [AdoMet] | monitoring transfer of the radioactively labelled methyl groups from [^3H]AdoMet to DNA | monitoring transfer of the radioactively labelled methyl groups from [^3H]AdoMet to DNA | 
M.EcoVIII (Escherichia coli) (protein) MLNKIQLPDEIKKNTVTNGNSISLIKKLPSQYAHLILSDIPYGIGAEDWDVLHNNSNNAYLGSSPAQKNAGAIFKKRGKPINGWSEADKKIPLEYQQWCEEWATEWFRVLKPGASAIIFAGRRFSHRCICAMEDAGFNLRDIIAWMRVKAPHRAQRLSCVYERRGDTLNAEKWNGWRVGNLQPTFEPILWFSKPYKIGGTIADNAIIHGVGAYNQDAFVARNGKPENVITAGFSSNESGLHPTQKPVALMKTLIELTTQKGQLVIDPFSGSGSTLVAAKDLGRDYIGFEINPTYVETSIKRLNK |  |  | 0.27 ± 0.006
